Results reported in patent US12605369B2, “Amido-substituted heterocyclic compounds and methods of use thereof for the treatment of herpes viruses” (Merck Sharp & Dohme LLC, priority 2019, dated 2026).
pEC50, pIC50: −log10 of the molar value. Like-named read-outs stand apart in the source and are kept apart here.

Experiments:
HSV-2 Strain G = experiment: Viral qPCR assay, HSV-2 (Example 14); format: cell-based; conditions: Strain G in Vero or MRCS cells, 0.004-0.4 pfu/cell, viral genome copy number by qPCR, read-out: HSV2 Cell EC50
Method: (§1) MRCS and Vero cells were obtained from ATCC and were maintained at 37° C./5% CO2/90% relative humidity in Minimal Essential Medium with 10% fetal bovine serum, […], 100 units/mL penicillin and 100 ug/mL streptomycin. Assay plates were prepared by dispensing compounds dissolved in DMSO into wells of 384 well collagen-coated plates using an ECHO acoustic dispenser. Each test compound was tested in a 10-point, serial 3-fold dilution. Controls included uninfected cells and infected cells treated only with DMSO. Assays were initiated by mixing selected cells, in suspension, with virus, and dispensing 50 μl/well infected cells to pre-plated compounds. Plates were incubated at 37° C./5% CO2/90% relative humidity for ˜72 hours to permit genomic replication, and infected cells were lysed by the addition of an equal volume of lysis buffer (10 mM Tris-HCl, pH8, 50 mM KCl, 2 mM MgCl2, 0.45% NP-40, 0.45% Tween-20, and 100 μg/mL proteinase K). An aliquot of the lysate was then transferred to a 384-well PCR plate and incubated at 56° C. for 1 hour, and then at 95° C. for 10 minutes. Levels of a viral gene were measured in 10 ul qPCR assays using TaqMan® Gene Expression Master Mix (Applied Biosystems) and an 7900HT Fast Real-Time PCR System with 384-Well Block Module. 7-point, serial 10-fold dilutions of a plasmid standard were run on each plate to generate a standard curve, and genome copies numbers were calculated by plotting experimental Ct onto linear regression of the standard curve. Compound effects on viral genome copy number were normalized to the window defined by the controls. Calculated % effects were fit using a 4-parameter algorithm, and EC50 was reported. • HCMV: Strain AD169 was assayed in MRC-5 cells and was used at 0.05-0.1 pfu/cell. The assays were performed in either growth media or in the same media with 50% fetal bovine serum. Primer-probe set was Thermo Fisher Assay ID=AIFATFK. • HSV-1: Strain F was assayed in Vero or MRCS cells and was used at 0.0005-0.004 pfu/cell in growth medium. Primer-probe set was Thermo Fisher Assay ID=AIBJZIB. • HSV-2: Strain G was assayed in Vero or MRCS cells and was used at 0.004-0.4 pfu/cell in growth medium. Primer-probe set was Thermo Fisher Assay ID=AICSXOJ.

[1] = biological target: T1, Human cytomegalovirus DNA polymerase (Human cytomegalovirus, UniProt P08546); experiment: CMV polymerase assay (AlphaLISA, Example 15); format: biochemical; conditions: HCMV polymerase 0.2 nM; 30 min pre-incubation; 60 min at 37° C.
T1 construct: made in house; host or cells: SF21 insect cells (baculovirus vector)
Method: (§2) CMV and VZW Polymerase Assays
(§3) Human cytomegalovirus and varicella zoster virus DNA polymerases were expressed via baculovirus vector in SF21 cells and purified. Heterodimeric nucleic acid substrate used in the herpesvirus polymerase reactions were generated by annealing a 59-mer template to a 17-mer digoxigenin-labeled primer. Polymerase (HCMV final concentration of 0.2 nM; VZV final concentration of 0.4 nM) was combined with an inhibitor compound or DMSO in assay buffer (10 mM HEPES, pH 7.5, 25 mM KCl, 25 mM NaCl, 5 mM MgCl2, 5% glycerol, 0.67 mg/ml bovine serum albumin, and 1 mM tris(2-carboxyethyl)phosphine)), and this mixture was pre-incubated for 30 minutes at room temperature in 384-well microtiter plates. The polymerization reaction was initiated by the addition of template/primer substrate (final concentration: 1.6 nM) and dNTPs (final concentration: 24 nM dCTP, 24 nMdGTP, 16 nM dATP, 16 nM dTTP, and 0.8 nM biotin-dUTP). After a 60 minute incubation period at 37° C., the reactions were terminated using quench buffer (25 mM HEPES pH 7.5, 100 mM NaCl, 0.25% Tween-20, 12 mM EDTA, and 1 mg/ml bovine serum albumin). Incorporation of biotinylated UTP was detected with 2.5-5 μg/mL anti-DIG AlphaLISA acceptor beads and 5-10 μg/mL streptavidin AlphaLISA donor beads (PerkinElmer). Compound effects were normalized to the window defined by the controls (DMSO only and pre-quenched wells) and were fit using a 4-parameter algorithm to report an IC50.

HCMV Strain AD169 = experiment: Viral qPCR assay, HCMV (Example 14); format: cell-based; conditions: for pEC50: Strain AD169 in MRC-5 cells, 0.05-0.1 pfu/cell, ~72 hours, viral genome copy number by qPCR, growth media or 50% fetal bovine serum, read-out: CMV Cell EC50
Method: as §1

HSV-1 Strain F = experiment: Viral qPCR assay, HSV-1 (Example 14); format: cell-based; conditions: Strain F in Vero or MRCS cells, 0.0005-0.004 pfu/cell, viral genome copy number by qPCR, read-out: HSV1 Cell EC50
Method: as §1

[2] = biological target: T2, varicella zoster virus DNA polymerase (Varicella-zoster virus, UniProt P09252); experiment: VZV polymerase assay (AlphaLISA, Example 15); format: biochemical; conditions: VZV polymerase 0.4 nM; 30 min pre-incubation; 60 min at 37° C.
T2 construct: made in house; host or cells: SF21 insect cells (baculovirus vector)
Method: as §2, §3

[3] = Human alphaherpesvirus 2, Vero, 72 h
[4] = Human betaherpesvirus 5, AD169, MRC5, 72 h
[5] = Human alphaherpesvirus 1, Vero, 72 h

T1 sequence (P08546 whole entry): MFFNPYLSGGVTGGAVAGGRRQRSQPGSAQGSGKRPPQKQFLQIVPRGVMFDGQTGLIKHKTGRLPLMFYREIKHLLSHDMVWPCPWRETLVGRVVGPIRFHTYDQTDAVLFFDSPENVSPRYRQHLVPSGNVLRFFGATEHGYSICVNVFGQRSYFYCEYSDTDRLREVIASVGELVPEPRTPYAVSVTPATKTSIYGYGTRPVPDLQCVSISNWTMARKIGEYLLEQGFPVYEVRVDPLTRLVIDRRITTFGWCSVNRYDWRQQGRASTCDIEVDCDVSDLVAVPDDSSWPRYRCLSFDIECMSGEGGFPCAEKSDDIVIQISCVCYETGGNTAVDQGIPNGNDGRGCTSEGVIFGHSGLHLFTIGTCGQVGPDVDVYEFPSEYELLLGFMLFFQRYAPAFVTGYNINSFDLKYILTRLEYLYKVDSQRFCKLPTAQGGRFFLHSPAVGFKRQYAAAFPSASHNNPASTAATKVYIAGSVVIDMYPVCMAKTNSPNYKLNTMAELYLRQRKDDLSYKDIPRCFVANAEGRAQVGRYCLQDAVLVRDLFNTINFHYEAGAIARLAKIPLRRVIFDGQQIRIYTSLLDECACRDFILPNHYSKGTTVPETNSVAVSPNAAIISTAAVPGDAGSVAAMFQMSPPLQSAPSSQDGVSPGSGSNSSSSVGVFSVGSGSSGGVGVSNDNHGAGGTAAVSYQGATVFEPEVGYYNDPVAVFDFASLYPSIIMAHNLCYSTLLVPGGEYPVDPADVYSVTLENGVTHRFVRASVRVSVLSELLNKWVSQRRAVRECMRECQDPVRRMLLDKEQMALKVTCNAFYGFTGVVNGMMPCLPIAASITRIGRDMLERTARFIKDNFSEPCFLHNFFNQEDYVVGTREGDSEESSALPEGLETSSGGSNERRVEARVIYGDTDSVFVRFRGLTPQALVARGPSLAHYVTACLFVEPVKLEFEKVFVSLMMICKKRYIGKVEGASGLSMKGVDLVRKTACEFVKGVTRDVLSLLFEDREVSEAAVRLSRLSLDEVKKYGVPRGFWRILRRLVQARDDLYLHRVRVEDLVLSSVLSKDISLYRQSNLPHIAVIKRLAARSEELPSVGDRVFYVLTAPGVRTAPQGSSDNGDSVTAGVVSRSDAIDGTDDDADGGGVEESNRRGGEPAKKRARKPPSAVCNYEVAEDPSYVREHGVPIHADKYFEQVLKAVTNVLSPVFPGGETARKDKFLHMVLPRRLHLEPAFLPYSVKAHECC
T2 sequence (P09252 whole entry): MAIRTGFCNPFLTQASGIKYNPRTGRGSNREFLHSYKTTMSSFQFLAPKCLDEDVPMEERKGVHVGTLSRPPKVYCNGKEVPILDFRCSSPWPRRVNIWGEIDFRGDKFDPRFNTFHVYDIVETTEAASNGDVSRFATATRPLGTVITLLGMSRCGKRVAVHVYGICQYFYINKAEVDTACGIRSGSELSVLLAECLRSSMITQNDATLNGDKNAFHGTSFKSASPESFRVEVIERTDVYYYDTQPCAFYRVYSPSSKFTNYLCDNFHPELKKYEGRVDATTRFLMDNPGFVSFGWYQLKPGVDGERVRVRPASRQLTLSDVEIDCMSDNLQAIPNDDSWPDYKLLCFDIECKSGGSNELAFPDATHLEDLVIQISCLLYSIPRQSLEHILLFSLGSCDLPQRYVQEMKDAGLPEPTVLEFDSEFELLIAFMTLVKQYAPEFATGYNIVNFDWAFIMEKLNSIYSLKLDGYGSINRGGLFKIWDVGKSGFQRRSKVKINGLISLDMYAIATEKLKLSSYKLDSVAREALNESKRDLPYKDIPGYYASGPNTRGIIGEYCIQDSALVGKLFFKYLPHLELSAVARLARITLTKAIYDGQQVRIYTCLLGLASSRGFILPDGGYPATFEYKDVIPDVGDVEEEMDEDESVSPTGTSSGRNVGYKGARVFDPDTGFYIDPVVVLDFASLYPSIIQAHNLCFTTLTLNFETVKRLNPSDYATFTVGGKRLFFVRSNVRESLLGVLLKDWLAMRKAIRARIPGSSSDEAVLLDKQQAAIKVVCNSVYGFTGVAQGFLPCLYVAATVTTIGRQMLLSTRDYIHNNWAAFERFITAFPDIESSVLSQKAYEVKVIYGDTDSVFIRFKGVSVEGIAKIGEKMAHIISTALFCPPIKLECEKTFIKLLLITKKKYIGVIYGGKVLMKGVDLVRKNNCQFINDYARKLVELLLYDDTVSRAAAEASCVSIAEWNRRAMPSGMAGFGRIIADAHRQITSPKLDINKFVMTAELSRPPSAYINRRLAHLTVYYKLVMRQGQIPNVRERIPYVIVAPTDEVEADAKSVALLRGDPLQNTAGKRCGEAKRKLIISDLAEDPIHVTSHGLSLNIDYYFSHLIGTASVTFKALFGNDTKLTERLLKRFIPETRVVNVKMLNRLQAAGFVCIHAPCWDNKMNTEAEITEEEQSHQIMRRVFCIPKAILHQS

Row | Structure (SMILES) | pEC50 (HSV-2 Strain G; [3]) | pIC50 [1] | pEC50 (HSV-1 Strain F; [5]) | pEC50 (HSV-2 Strain G; ~72 hours) | pEC50 (HSV-1 Strain F; ~72 hours) | pIC50 [2] | pEC50 (HCMV Strain AD169; [4]) | pEC50 (HCMV Strain AD169) | EC50 (HCMV Strain AD169; Human betaherpesvirus 5, AD169, MRC5, 72 h, read-out: CMV Cell EC50 (nM))
1 | COc1nc(NC(=O)Cc2ccc(Cl)cc2CO)ccc1C[C@H]1COC(=O)N1 [Compound 3] | 6.30 | 7.92 | 6.40 | – | – | – | 6.75 | – | –
2 | COCc1cc(Cl)ccc1CC(=O)Nc1ccc(C[C@H]2COC(=O)N2)c(OC)n1 [Compound 5] | 6.50 | 7.92 | 6.78 | – | – | 7.74 | 6.94 | – | –
3 | COc1nc(NC(=O)C2CCc3cc(Cl)ccc32)ccc1C[C@H]1COC(=O)N1 (stereo partly shown) [Compound 17] | 7.00 | 7.64 | 6.90 | – | – | – | 6.88 | – | –
4 | COc1nc(NC(=O)C2CCc3cc(Cl)ccc3O2)ccc1C[C@H]1COC(=O)N1 (stereo partly shown) [Compound 18] | 6.83 | 8.85 | 6.89 | – | – | 9.00 | 6.36 | – | –
5 | COc1nc(NC(=O)N2Cc3ccc(Cl)cc3C2)ccc1C[C@H]1COC(=O)N1 [Compound 12] | – | 5.42 | – | – | – | 5.32 | < 5.00 | – | –
6 | COc1nc(NC(=O)Cc2ccc(Cl)cc2COCc2ccccc2)ccc1C[C@H]1COC(=O)N1 [Compound 2] | – | 6.97 | – | – | – | – | 5.45 | – | –
7 | COc1nc(NC(=O)Cc2ccc(C(F)(F)F)c(F)c2)ccc1C[C@H]1COC(=O)N1 [Compound 14] | 6.87 | 7.96 | 6.55 | – | – | – | 6.31 | – | –
8 | COc1nc(N2CCC(c3ccc(C#N)cc3)C2=O)ccc1C[C@H]1COC(=O)N1 (stereo partly shown) [Compound 20] | 6.88 | 8.22 | 6.91 | – | – | 8.30 | 6.92 | – | –
9 | COc1nc(NC(=O)C2CCc3cc(C#N)ccc32)ccc1C[C@H]1COC(=O)N1 (stereo partly shown) [Compound 19] | 6.59 | 8.00 | 6.51 | – | – | 8.15 | 6.32 | – | –
10 | COc1nc(NC(=O)Cc2ccc(C#N)cc2)ccc1C[C@H]1COC(=O)N1 [Compound 13] | 6.72 | 7.66 | 6.52 | – | – | 8.10 | 6.89 | – | –
11 | COc1nc(N2CCN(c3ccc(Cl)cc3)C2=O)ccc1C[C@H]1COC(=O)N1 [Compound 10] | 6.54 | 7.85 | 6.55 | – | – | – | 6.28 | – | –
12 | COc1nc(N2CCC(F)(c3ccc(C#N)cc3)C2=O)ccc1C[C@H]1COC(=O)N1 (single isomer, unassigned) [Compound 8] | 6.05 | 8.00 | 6.02 | – | – | 7.47 | 6.36 | – | –
13 | COc1nc(N2CCN(Cc3ccc(C#N)cc3)C2=O)ccc1C[C@H]1COC(=O)N1 [Compound 22] | 7.00 | 7.46 | 6.88 | – | – | – | 6.50 | – | –
14 | COCc1cc(C#N)ccc1CC(=O)Nc1ccc(C[C@H]2COC(=O)N2)c(OC)n1 [Compound 6] | 6.70 | 8.05 | 6.82 | – | – | 8.10 | 7.44 | – | –
15 | COc1nc(N2CCN(c3ccc(C#N)cc3)C2=O)ccc1C[C@H]1COC(=O)N1 [Compound 21] | 7.05 | 7.54 | 6.51 | – | – | – | 6.43 | – | –
16 | COc1nc(N2CCN(c3ccc(C#N)c(F)c3)C2=O)ccc1C[C@H]1COC(=O)N1 [Compound 11] | – | 7.52 | – | – | – | – | – | – | 596 nM
17 | COc1nc(NC(=O)Cc2ccc(C#N)cc2F)ccc1C[C@H]1COC(=O)N1 [Compound 15] | 6.28 | 8.12 | 6.34 | – | – | 8.10 | 7.08 | – | –

More lines, main results first:

Row | pEC50 (HSV-2 Strain G; [3]) | pIC50 [1] | pEC50 (HSV-1 Strain F; [5]) | pEC50 (HSV-2 Strain G; ~72 hours) | pEC50 (HSV-1 Strain F; ~72 hours) | pIC50 [2] | Structure (SMILES) | pEC50 (HCMV Strain AD169; [4]) | pEC50 (HCMV Strain AD169) | EC50 (HCMV Strain AD169; Human betaherpesvirus 5, AD169, MRC5, 72 h, read-out: CMV Cell EC50 (nM))
18 | – | – | – | 7.14 | 7.22 | – | COc1nc(NC(=O)C2CN(C)c3cc(C#N)ccc3O2)ccc1C[C@H]1COC(=O)N1 (stereo partly shown) [Compound 26] | – | 7.41 | –
19 | – | – | – | 5.30 | 5.45 | – | COc1nc(NC(=O)C2CCc3cc(C#N)ccc3N2C)ccc1C[C@H]1COC(=O)N1 (stereo partly shown) [Compound 29] | – | 6.46 | –
20 | – | – | – | 4.95 | 5.05 | – | COc1nc(NC(=O)C2(C)CCc3cc(C#N)ccc3O2)ccc1C[C@H]1COC(=O)N1 (stereo partly shown) [Compound 33] | – | 5.78 | –
21 | 7.25 | 9.40 | 7.36 | – | – | 9.40 | COc1nc(NC(=O)C2CCc3cc(C#N)ccc3O2)ccc1C[C@H]1COC(=O)N1 (stereo partly shown) [Compound 23] | 7.42 | – | –
22 | – | – | – | 6.23 | 6.60 | – | COc1nc(NC(=O)C2Cc3ccc(C#N)cc3CN2)ccc1C[C@H]1COC(=O)N1 (stereo partly shown) [Compound 35] | – | 6.69 | –
23 | – | – | – | 4.89 | 4.21 | – | COc1nc(NC(=O)C2CN(C)c3cc(C#N)ccc3O2)ccc1C[C@H]1COC(=O)N1 (stereo partly shown) [Compound 27] | – | 4.97 | –
24 | – | – | – | 6.76 | 6.93 | – | COc1nc(NC(=O)C2CCc3cc(C#N)ccc3C2)ccc1C[C@H]1COC(=O)N1 (stereo partly shown) [Compound 32] | – | 7.14 | –
25 | – | – | – | < 4.10 | < 4.10 | – | COc1nc(NC(=O)C2(C)CCc3cc(C#N)ccc3O2)ccc1C[C@H]1COC(=O)N1 (stereo partly shown) [Compound 34] | – | 4.40 | –
26 | – | – | – | 4.95 | 5.71 | – | COc1nc(NC(=O)C2Cc3ccc(C#N)cc3CN2)ccc1C[C@H]1COC(=O)N1 (stereo partly shown) [Compound 36] | – | 5.78 | –
27 | – | – | – | 4.32 | 4.15 | – | COc1nc(NC(=O)C2CCc3cc(C#N)ccc3C2)ccc1C[C@H]1COC(=O)N1 (stereo partly shown) [Compound 31] | – | 4.95 | –
28 | – | – | – | 4.97 | 5.13 | – | COc1nc(NC(=O)C2CCc3cc(C#N)ccc3N2C)ccc1C[C@H]1COC(=O)N1 (stereo partly shown) [Compound 30] | – | 5.57 | –
29 | 6.10 | – | 6.42 | – | – | – | COc1nc(NC(=O)[C@@H]2Cc3ccc(C#N)cc3CN2C)ccc1C[C@H]1COC(=O)N1 [Compound 28] | 6.76 | – | –
